Results published in patent US20260102407A1, “TREATMENT METHODS” (priority 2020, published 2026).

Key:
ICAM-1 = assay: Collagen antibody-induced arthritis, hind limb immunohistochemistry for ICAM-1; assay type: in vivo, mouse; conditions: CAIA mice; Day 14 hind limbs
Method: Collagen antibody-induced arthritis. Arthritis was induced in female Balb/c mice (6-8 week-old) as previously described with a commercially obtained cocktail of 5 monoclonal antibodies to type II collagen at 2 mg/mouse (Chondrex, Inc. Redmond, WA) followed by LPS (50 μg/mouse) with or without BT2 (3 or 30 mg/kg mouse) in DMSO vehicle was administered i.p. on Day 3. Hind footpad thickness was measured on Day 9 using digital calipers. Mice were sacrificed on Day 14 and microCT scanning of hind limbs was performed.
Immmunohistochemical staining of hind limbs for VCAM-1 and ICAM-1 and analysis. Formalin-fixed, paraffin embedded of hind limbs were sectioned (5 μm). Dako EnVision Rabbit Kit (cat. K4011, Dako) was used for immmunohistochemical staining for VCAM-1 and ICAM-1. […] Integrated optical density (IOD) of positive staining in ankle joint (tibia and talus) articular cartilage was assessed for VCAM-1 and ICAM-1 using Image-Pro Plus software (Cybernetics, Bethesda, MD, USA). Area (μm^2) of ankle joint articular cartilage was measured using Image-Pro Plus software. Total cell number and positive staining cell number in ankle joint articular cartilage were counted manually using Image-Pro Plus software. […]

p-SAPK/JNK = assay: Western blot, IL-1β-inducible p-SAPK/JNK in HMEC-1; assay type: cell-based, human; conditions: 1-30 μM
Method: Western blot analysis with extracts of cells treated with IL-13. HMEC-1 (80-90% confluency) were arrested in serum-free MCDB131 medium (Invitrogen, MD) without any growth factor for 48 h. Cells were treated with 30 μM compound in serum-free medium for 4 h, and incubated with 20 ng/ml IL-1β (Sigma, cat. SRE3083) in serum-free medium with the same concentration of compound for up to 4 h, unless otherwise indicated. Total protein was harvested as previously described using RIPA buffer with protease inhibitors. Proteins were resolved on 4-20% (w/v) SDS-polyacrylamide gradient gels and transferred to Immobilon-P PVDF membranes. […] Chemiluminescence was detected using the Western Lightning Chemiluminescence system and ImageQuant™ LAS 4000 biomolecular imager. Band intensity in images generated with the LAS 4000 using the same settings were quantified by NIH ImageJ.

VCAM-1 = assay: Flow cytometry of VCAM-1 on IL-1β-treated HMEC-1; assay type: cell-based, human; conditions: 30 μM, 20 ng/ml IL-1β 4 h
Method: Flow cytometry. HMEC-1 (at 80-90% confluency) were arrested in serum-free MCDB131 medium without EGF or hydrocortisone for 40 h, treated with 30 μM BT2 or BT3 for 4 h. The cells were incubated in serum-free medium and exposed to 20 ng/ml IL-1β with the same concentration of BT2 or BT3 for a further 4 h. The cells were washed with PBS then detached with Accutase (Stem Cell Technologies, cat. 07920). The cells were centrifuged at 300 g for 5 min and resuspended at 5×10^6 cells/ml containing BT2 or BT3. The cells were incubated with BV421-conjugated mouse anti-human CD106 (VCAM-1) (BD, cat. 744309) or BV421-conjugated mouse IgG1 (BD, cat. 562438) for 45 min at 22° C. The cells were washed with Stain Buffer and the pellet was resuspended in 0.5 ml of 1% paraformaldehyde prior to flow cytometry BD FACSCanto II.
VCAM-1^+ and VCAM-1^− cells were gated by performing flow cytometry with or without primary VCAM-1 antibody (non-specific staining), respectively. […] The gating strategy is based on fluorescence excitation off both the 488 nm laser and 405 nm laser with emission filters 670LP off 488 nm and 450/50 off 405 nm. Cells with autofluorescence or negative (blue population) had equal proportion of fluorescence in both channels and VCAM-1 positive cells (red) emit light in the 450/50 filter.

## CCOC(=O)Nc1ccc2c(c1)C(=O)N(CC)c1ccccc1O2 [BT2, (10-ethyl-11-oxo-10,11-dihydro-dibenzo[b,f][1,4]oxazepin-2-yl)-carbamic acid ethyl ester]
ICAM-1
  ICAM-1 expression in bone: inhibit VCAM-1 and ICAM-1 expression
p-SAPK/JNK
  IL-1β-inducible p-SAPK/JNK: no effect
VCAM-1
  VCAM-1 expression by flow cytometry: inhibition of VCAM-1
